Results: patent US10081641B2, “Pesticidally active heterocyclic derivatives with sulphur containing substituents” (Syngenta Participations AG, priority 2014, dated 2018)
Where two headings read alike, the source gives them in different places.

Assays:
Format in all cases: in vivo
[1] = tested on: Spodoptera littoralis (Egyptian Cotton Leaf Worm); experiment: Example B1: Spodoptera littoralis, sprayed cotton leaf discs; details: foliar, 72 h, read-out: control (at least one of mortality, anti-feedant effect, growth inhibition)
Protocol: Example B1: Spodoptera littoralis (Egyptian Cotton Leaf Worm)
Cotton leaf discs were placed on agar in 24-well microtiter plates and sprayed with aqueous test solutions prepared from 10′000 ppm DMSO stock solutions. After drying, the leaf discs were infested with five L1 larvae. The samples were assessed for mortality, anti-feedant effect, and growth inhibition in comparison to untreated samples 3 days after infestation. Control of Spodoptera littoralis by a test sample is when at least one of mortality, anti-feedant effect, and growth inhibition is higher than the untreated sample.

[2] = tested on: Plutella xylostella (Diamond Back Moth); experiment: Example B3: Plutella xylostella, artificial diet; details: 120 h, read-out: effect in at least one of the two categories (mortality or growth inhibition)
Protocol: Example B3: Plutella xylostella (Diamond Back Moth)
24-well microtiter plates with artificial diet were treated with aqueous test solutions prepared from 10′000 ppm DMSO stock solutions by pipetting. After drying, the plates were infested with L2 larvae (10 to 15 per well). The samples were assessed for mortality and growth inhibition in comparison to untreated samples 5 days after infestation.

[3] = tested on: Myzus persicae (Green Peach Aphid); experiment: Example B5: Myzus persicae, sprayed sunflower leaf discs; details: foliar, 144 h, application rate of 200 ppm, mixed ages, 6 days after infestation
Protocol: Example B5: Myzus persicae (Green Peach Aphid)
Sunflower leaf discs were placed on agar in a 24-well microtiter plate and sprayed with aqueous test solutions prepared from 10′000 ppm DMSO stock solutions. After drying, the leaf discs were infested with an aphid population of mixed ages. The samples were assessed for mortality 6 days after infestation.

[4] = tested on: Diabrotica Balteata (Corn Root Worm); experiment: Example B4: Diabrotica balteata, sprayed maize sprouts; details: 96 h, application rate of 200 ppm, L2 larvae, 4 days after infestation, read-out: effect in at least one of the two categories (mortality or growth inhibition)
Protocol: Example B4: Diabrotica Balteata (Corn Root Worm)
Maize sprouts, placed on an agar layer in 24-well microtiter plates were treated with aqueous test solutions prepared from 10′000 ppm DMSO stock solutions by spraying. After drying, the plates were infested with L2 larvae (6 to 10 per well). The samples were assessed for mortality and growth inhibition in comparison to untreated samples 4 days after infestation.

[5] = tested on: Bemisia tabaci (Cotton White Fly); experiment: Example B7: Bemisia tabaci, sprayed cotton leaf discs; details: foliar, 144 h, application rate of 200 ppm, adult white flies, 6 days after incubation
Protocol: Example B7: Bemisia tabaci (Cotton White Fly)
Cotton leaf discs were placed on agar in 24-well microtiter plates and sprayed with aqueous test solutions prepared from 10′000 ppm DMSO stock solutions. After drying the leaf discs were infested with adult white flies. The samples were checked for mortality 6 days after incubation.

[6] = tested on: Spodoptera littoralis (Egyptian Cotton Leaf Worm); experiment: Example B2: Spodoptera littoralis, systemic test via lettuce roots in agar; details: 144 h, test rate of 12.5 ppm, uptake via lettuce roots, 6 days after infestation, read-out: effect in at least one of the three categories (mortality, anti-feedancy, or growth inhibition)
Source text: Example B2: Spodoptera littoralis (Egyptian Cotton Leaf Worm)
Test compounds were applied by pipette from 10′000 ppm DMSO stock solutions into 24-well plates and mixed with agar. Lettuce seeds were placed on the agar and the multi well plate was closed by another plate which contains also agar. After 7 days the roots have absorbed the compound and the lettuce has grown into the lid plate. The lettuce leafs were now cut off into the lid plate. Spodoptera eggs were pipetted through a plastic stencil on a humid gel blotting paper and the plate closed with it. The samples were assessed for mortality, anti-feedant effect and growth inhibition in comparison to untreated samples 6 days after infestation.

[7] = tested on: Euschistus heros (Neotropical Brown Stink Bug); experiment: Example B8: Euschistus heros, sprayed soybean leaf; details: 120 h, application rate of 200 ppm, N-2 nymphs, 5 days after infestation
Protocol: Example B8: Euschistus heros (Neotropical Brown Stink Bug)
Soybean leaf on agar in 24-well microtiter plates were sprayed with aqueous test solutions prepared from 10′000 ppm DMSO stock solutions. After drying the leaf were infested with N-2 nymphs. The samples were assessed for mortality 5 days after infestation.

[8] = application rate of 200 ppm, cotton leaf discs, L1 larvae, 3 days after infestation
[9] = application rate of 200 ppm, artificial diet, L2 larvae, 5 days after infestation

CCS(=O)(=O)c1cc(C#C[Si](C)(C)C)cnc1-c1nc2cc(C(F)(F)F)ncc2n1C [P1, 2-[5-ethylsulfonyl-6-[3-methyl-6-(trifluoromethyl)imidazo[4,5-c]pyridin-2-yl]-3-pyridyl]ethynyl-trimethyl-silane]
≥ 80%: percent control (mortality, anti-feedant effect or growth inhibition) at 200 ppm [1] | percent effect (mortality or growth inhibition) at 200 ppm [2]

C#Cc1cnc(-c2nc3cc(C(F)(F)F)ncc3n2C)c(S(=O)(=O)CC)c1 [P2, 2-(3-ethylsulfonyl-5-ethynyl-2-pyridyl)-3-methyl-6-(trifluoromethyl)imidazo[4,5-c]pyridine]
≥ 80%: percent control (mortality, anti-feedant effect or growth inhibition) at 200 ppm [1, 8] | percent effect (mortality or growth inhibition) at 200 ppm [2, 9]

CCS(=O)(=O)c1cc(C#Cc2ccc(Cl)cc2)cnc1-c1nc2cc(C(F)(F)F)ncc2n1C [P4]
≥ 80%: percent control (mortality, anti-feedant effect or growth inhibition) at 200 ppm [1, 8] | mortality at 200 ppm [3] | percent effect (mortality or growth inhibition) at 200 ppm [4] | percent effect (mortality or growth inhibition) at 200 ppm [2, 9]

CCS(=O)(=O)c1cc(/C=C/C2CCCCC2)cnc1-c1nc2cc(C(F)(F)F)ncc2n1C [P5]
≥ 80%: mortality at 200 ppm [5] | percent effect (mortality or growth inhibition) at 200 ppm [4] | percent effect (mortality or growth inhibition) at 200 ppm [2, 9]

C/C=C/c1cnc(-c2nc3cc(C(F)(F)F)ncc3n2C)c(S(=O)(=O)CC)c1 [P6]
≥ 80%: percent control (mortality, anti-feedancy or growth inhibition) at 12.5 ppm [6] | percent control (mortality, anti-feedant effect or growth inhibition) at 200 ppm [1, 8] | mortality at 200 ppm [3] | mortality at 200 ppm [7] | percent effect (mortality or growth inhibition) at 200 ppm [4] | percent effect (mortality or growth inhibition) at 200 ppm [2, 9]

CCS(=O)(=O)c1cc(/C=C/c2ccc(C(F)(F)F)cc2)ccc1-c1nc2cc(C(F)(F)F)ncc2n1C [P10]
≥ 80%: percent control (mortality, anti-feedant effect or growth inhibition) at 200 ppm [1, 8] | mortality at 200 ppm [7] | percent effect (mortality or growth inhibition) at 200 ppm [4] | percent effect (mortality or growth inhibition) at 200 ppm [2, 9]

CCS(=O)(=O)c1cc(C=C(C)C)cnc1-c1nc2cc(C(F)(F)F)ncc2n1C [P11]
≥ 80%: percent control (mortality, anti-feedant effect or growth inhibition) at 200 ppm [1, 8] | mortality at 200 ppm [3] | mortality at 200 ppm [7] | percent effect (mortality or growth inhibition) at 200 ppm [4] | percent effect (mortality or growth inhibition) at 200 ppm [2, 9]

CCS(=O)(=O)c1cc(C2=CCC(C)(C)CC2)cnc1-c1nc2cc(C(F)(F)F)ncc2n1C [P12]
≥ 80%: mortality at 200 ppm [3] | mortality at 200 ppm [7] | mortality at 200 ppm [5] | percent effect (mortality or growth inhibition) at 200 ppm [2, 9]

C=Cc1ccc(-c2nc3cc(C(F)(F)F)ncc3n2C)c(S(=O)(=O)CC)c1 [P13]
≥ 80%: percent control (mortality, anti-feedancy or growth inhibition) at 12.5 ppm [6] | percent control (mortality, anti-feedant effect or growth inhibition) at 200 ppm [1, 8] | percent effect (mortality or growth inhibition) at 200 ppm [4] | percent effect (mortality or growth inhibition) at 200 ppm [2, 9]

C=C(c1ccc(-c2nc3cc(C(F)(F)F)ncc3n2C)c(S(=O)(=O)CC)c1)C(F)(F)F [P14]
≥ 80%: percent control (mortality, anti-feedant effect or growth inhibition) at 200 ppm [1, 8] | percent effect (mortality or growth inhibition) at 200 ppm [4] | percent effect (mortality or growth inhibition) at 200 ppm [2, 9]

C=C(c1cnc(-c2nc3cc(C(F)(F)F)ncc3n2C)c(S(=O)(=O)CC)c1)C(F)(F)F [P17, 2-[3-ethylsulfonyl-5-[1-(trifluoromethyl)vinyl]-2-pyridyl]-3-methyl-6-(trifluoromethyl)imidazo[4,5-c]pyridine]
≥ 80%: percent effect (mortality or growth inhibition) at 200 ppm [4]
